# Measurements published in ChEMBL document CHEMBL3885861, “Open TG-GATES”.
# Organism: Rattus norvegicus
# Assay: Open TG-GATES - Regimen: Daily Repeat
# Assay type: toxicity, organism-based, Sprague-Dawley
# Set-up: regimen Daily Repeat, gender Male, age 6 weeks
# Conditions: in vivo, po, 100 mg/kg, route gavage, dose level Middle; for APTT / Bas / Eos / Fbg / Hb / Ht / Lym / MCH / MCHC / MCV / Mono / Neu / PT / Plat / RBC / Ret / WBC: tissue Blood; for KIDNEY_L / KIDNEY_R / KIDNEY_TOTAL: tissue Kidney; for LIVER: tissue Liver; for A/G / ALP / ALT / AST / BUN / CRE / Ca / Cl / DBIL / GLC / IP / K / LDH / Na / PL / RALB / TBIL / TC / TG / TP / gamma-GTP: tissue Plasma
compound,measurement,setting,value
CCOC(=O)C(C)(C)Oc1ccc(Cl)cc1 [CLOFIBRATE],TERMINAL_BW,"72 h, time 3 day",242.5 g
same,APTT,"72 h, time 3 day",18.9 s
same,Bas,"72 h, time 3 day",0%
same,Eos,"72 h, time 3 day",1%
same,Fbg,"72 h, time 3 day",210.8 mg/dL
same,Hb,"72 h, time 3 day",13.4 g/dL
same,Ht,"72 h, time 3 day",38.4%
same,Lym,"72 h, time 3 day",80.2%
same,MCH,"72 h, time 3 day",21.6 pg
same,MCHC,"72 h, time 3 day",35%
same,MCV,"72 h, time 3 day",61.8 fL
same,Mono,"72 h, time 3 day",2.6%
same,Neu,"72 h, time 3 day",15.6%
same,PT,"72 h, time 3 day",12.4 s
same,Plat,"72 h, time 3 day",131.7 x10_4/uL
same,RBC,"72 h, time 3 day",621.6 x10_4/ul
same,Ret,"72 h, time 3 day",4.9%
same,WBC,"72 h, time 3 day",117.6 x10_2/uL
same,KIDNEY_L,"72 h, time 3 day",1.1 g
same,KIDNEY_R,"72 h, time 3 day",1.1 g
same,KIDNEY_TOTAL,"72 h, time 3 day",2.2 g
same,LIVER,"72 h, time 3 day",12.5 g
same,A/G,"72 h, time 3 day",1.7
same,ALP,"72 h, time 3 day",1054.4 IU/L
same,ALT,"72 h, time 3 day",38.2 IU/L
same,AST,"72 h, time 3 day",70.2 IU/L
same,BUN,"72 h, time 3 day",16 mg/dL
same,CRE,"72 h, time 3 day",0.4 mg/dL
same,Ca,"72 h, time 3 day",10.8 mg/dL
same,Cl,"72 h, time 3 day",102.6 meq/L
same,DBIL,"72 h, time 3 day",0.076 mg/dL
same,GLC,"72 h, time 3 day",198.4 mg/dL
same,IP,"72 h, time 3 day",6.3 mg/dL
same,K,"72 h, time 3 day",4 meq/L
same,LDH,"72 h, time 3 day",215 IU/L
same,Na,"72 h, time 3 day",141 meq/L
same,PL,"72 h, time 3 day",120 mg/dL
same,RALB,"72 h, time 3 day",3.4 g/dL
same,TBIL,"72 h, time 3 day",0.1 mg/dL
same,TC,"72 h, time 3 day",55.6 mg/dL
same,TG,"72 h, time 3 day",82.4 mg/dL
same,TP,"72 h, time 3 day",5.4 g/dL
same,gamma-GTP,"72 h, time 3 day",0.6 IU/L
same,TERMINAL_BW,"[…], time 7 day",270.9 g
same,TERMINAL_BW,"[…], time 14 day",321.6 g
same,TERMINAL_BW,"[…], time 28 day",398.1 g
same,APTT,"[…], time 7 day",22.7 s
same,Bas,"[…], time 7 day",0%
same,Eos,"[…], time 7 day",1%
same,Fbg,"[…], time 7 day",200.6 mg/dL
same,Hb,"[…], time 7 day",14 g/dL
same,Ht,"[…], time 7 day",40%
same,Lym,"[…], time 7 day",79.2%
same,MCH,"[…], time 7 day",21.2 pg
same,MCHC,"[…], time 7 day",35.1%
same,MCV,"[…], time 7 day",60.5 fL
same,Mono,"[…], time 7 day",3%
same,Neu,"[…], time 7 day",16.6%
same,PT,"[…], time 7 day",12.4 s
same,Plat,"[…], time 7 day",132.4 x10_4/uL
same,RBC,"[…], time 7 day",660.6 x10_4/ul
same,Ret,"[…], time 7 day",4.9%
same,WBC,"[…], time 7 day",99.6 x10_2/uL
same,APTT,"[…], time 14 day",20.3 s
same,Bas,"[…], time 14 day",0%
same,Eos,"[…], time 14 day",1%
same,Fbg,"[…], time 14 day",204.2 mg/dL
same,Hb,"[…], time 14 day",13.6 g/dL
same,Ht,"[…], time 14 day",39.5%
same,Lym,"[…], time 14 day",81.8%
same,MCH,"[…], time 14 day",20 pg
same,MCHC,"[…], time 14 day",34.3%
same,MCV,"[…], time 14 day",58.2 fL
same,Mono,"[…], time 14 day",2.6%
same,Neu,"[…], time 14 day",14.2%
same,PT,"[…], time 14 day",12.7 s
same,Plat,"[…], time 14 day",130.4 x10_4/uL
same,RBC,"[…], time 14 day",679 x10_4/ul
same,Ret,"[…], time 14 day",4.2%
same,WBC,"[…], time 14 day",153.1 x10_2/uL
same,APTT,"[…], time 28 day",21.7 s
same,Bas,"[…], time 28 day",0%
same,Eos,"[…], time 28 day",1.2%
same,Fbg,"[…], time 28 day",211.2 mg/dL
same,Hb,"[…], time 28 day",14.7 g/dL
same,Ht,"[…], time 28 day",41.8%
same,Lym,"[…], time 28 day",83.8%
same,MCH,"[…], time 28 day",19.1 pg
same,MCHC,"[…], time 28 day",35.1%
same,MCV,"[…], time 28 day",54.3 fL
same,Mono,"[…], time 28 day",2%
same,Neu,"[…], time 28 day",12.8%
same,PT,"[…], time 28 day",12.1 s
same,Plat,"[…], time 28 day",110.4 x10_4/uL
same,RBC,"[…], time 28 day",769.4 x10_4/ul
same,Ret,"[…], time 28 day",2.1%
same,WBC,"[…], time 28 day",141.2 x10_2/uL
same,KIDNEY_L,"[…], time 7 day",1.1 g
same,KIDNEY_R,"[…], time 7 day",1.2 g
same,KIDNEY_TOTAL,"[…], time 7 day",2.3 g
same,KIDNEY_L,"[…], time 14 day",1.3 g
same,KIDNEY_R,"[…], time 14 day",1.3 g
same,KIDNEY_TOTAL,"[…], time 14 day",2.6 g
same,KIDNEY_L,"[…], time 28 day",1.5 g
same,KIDNEY_R,"[…], time 28 day",1.5 g
same,KIDNEY_TOTAL,"[…], time 28 day",3 g
same,LIVER,"[…], time 7 day",14.5 g
same,LIVER,"[…], time 14 day",17 g
same,LIVER,"[…], time 28 day",20.1 g
same,A/G,"[…], time 7 day",1.9
same,ALP,"[…], time 7 day",856.8 IU/L
same,ALT,"[…], time 7 day",32.8 IU/L
same,AST,"[…], time 7 day",61 IU/L
same,BUN,"[…], time 7 day",16.8 mg/dL
same,CRE,"[…], time 7 day",0.4 mg/dL
same,Ca,"[…], time 7 day",10.4 mg/dL
same,Cl,"[…], time 7 day",102.8 meq/L
same,DBIL,"[…], time 7 day",0.07 mg/dL
same,GLC,"[…], time 7 day",211.2 mg/dL
same,IP,"[…], time 7 day",7.3 mg/dL
same,K,"[…], time 7 day",3.5 meq/L
same,LDH,"[…], time 7 day",207.2 IU/L
same,Na,"[…], time 7 day",141 meq/L
same,PL,"[…], time 7 day",108.8 mg/dL
same,RALB,"[…], time 7 day",3.7 g/dL
same,TBIL,"[…], time 7 day",0.1 mg/dL
same,TC,"[…], time 7 day",49.8 mg/dL
same,TG,"[…], time 7 day",53.4 mg/dL
same,TP,"[…], time 7 day",5.6 g/dL
same,gamma-GTP,"[…], time 7 day",1 IU/L
same,A/G,"[…], time 14 day",1.7
same,ALP,"[…], time 14 day",933 IU/L
same,ALT,"[…], time 14 day",38.4 IU/L
same,AST,"[…], time 14 day",63.4 IU/L
same,BUN,"[…], time 14 day",16.4 mg/dL
same,CRE,"[…], time 14 day",0.4 mg/dL
same,Ca,"[…], time 14 day",10.2 mg/dL
same,Cl,"[…], time 14 day",101.8 meq/L
same,DBIL,"[…], time 14 day",0.06 mg/dL
same,GLC,"[…], time 14 day",223.8 mg/dL
same,IP,"[…], time 14 day",6.1 mg/dL
same,K,"[…], time 14 day",3.8 meq/L
same,LDH,"[…], time 14 day",183.8 IU/L
same,Na,"[…], time 14 day",140.4 meq/L
same,PL,"[…], time 14 day",120.2 mg/dL
same,RALB,"[…], time 14 day",3.5 g/dL
same,TBIL,"[…], time 14 day",0.1 mg/dL
same,TC,"[…], time 14 day",55 mg/dL
same,TG,"[…], time 14 day",63.4 mg/dL
same,TP,"[…], time 14 day",5.6 g/dL
same,gamma-GTP,"[…], time 14 day",1 IU/L
same,A/G,"[…], time 28 day",1.7
same,ALP,"[…], time 28 day",726.6 IU/L
same,ALT,"[…], time 28 day",38.2 IU/L
same,AST,"[…], time 28 day",71 IU/L
same,BUN,"[…], time 28 day",15.8 mg/dL
same,CRE,"[…], time 28 day",0.4 mg/dL
same,Ca,"[…], time 28 day",10.5 mg/dL
same,Cl,"[…], time 28 day",102.4 meq/L
same,DBIL,"[…], time 28 day",0.08 mg/dL
same,GLC,"[…], time 28 day",208.6 mg/dL
same,IP,"[…], time 28 day",6.1 mg/dL
same,K,"[…], time 28 day",3.6 meq/L
same,LDH,"[…], time 28 day",236.8 IU/L
same,Na,"[…], time 28 day",141 meq/L
same,PL,"[…], time 28 day",132 mg/dL
same,RALB,"[…], time 28 day",3.8 g/dL
same,TBIL,"[…], time 28 day",0.1 mg/dL
same,TC,"[…], time 28 day",54.8 mg/dL
same,TG,"[…], time 28 day",106.2 mg/dL
same,TP,"[…], time 28 day",6 g/dL
same,gamma-GTP,"[…], time 28 day",1 IU/L
